In assay [1] the target is T1, CaV3.2 (Homo sapiens, UniProt O95180).
T1 construct: gene CACNA1H; human CaV3.2 channels stably expressed in HEK-293 cells
Description: whole-cell patch clamp, percent inhibition of peak current at […]. In kind it is cell-based.

For assay [2], the target named is T1, CaV3.2. As to the kind of experiment: whole-cell patch clamp, concentration-response of peak T-current. In kind it is cell-based.

Molecules are shown by their SMILES.

T1 sequence (O95180 whole entry): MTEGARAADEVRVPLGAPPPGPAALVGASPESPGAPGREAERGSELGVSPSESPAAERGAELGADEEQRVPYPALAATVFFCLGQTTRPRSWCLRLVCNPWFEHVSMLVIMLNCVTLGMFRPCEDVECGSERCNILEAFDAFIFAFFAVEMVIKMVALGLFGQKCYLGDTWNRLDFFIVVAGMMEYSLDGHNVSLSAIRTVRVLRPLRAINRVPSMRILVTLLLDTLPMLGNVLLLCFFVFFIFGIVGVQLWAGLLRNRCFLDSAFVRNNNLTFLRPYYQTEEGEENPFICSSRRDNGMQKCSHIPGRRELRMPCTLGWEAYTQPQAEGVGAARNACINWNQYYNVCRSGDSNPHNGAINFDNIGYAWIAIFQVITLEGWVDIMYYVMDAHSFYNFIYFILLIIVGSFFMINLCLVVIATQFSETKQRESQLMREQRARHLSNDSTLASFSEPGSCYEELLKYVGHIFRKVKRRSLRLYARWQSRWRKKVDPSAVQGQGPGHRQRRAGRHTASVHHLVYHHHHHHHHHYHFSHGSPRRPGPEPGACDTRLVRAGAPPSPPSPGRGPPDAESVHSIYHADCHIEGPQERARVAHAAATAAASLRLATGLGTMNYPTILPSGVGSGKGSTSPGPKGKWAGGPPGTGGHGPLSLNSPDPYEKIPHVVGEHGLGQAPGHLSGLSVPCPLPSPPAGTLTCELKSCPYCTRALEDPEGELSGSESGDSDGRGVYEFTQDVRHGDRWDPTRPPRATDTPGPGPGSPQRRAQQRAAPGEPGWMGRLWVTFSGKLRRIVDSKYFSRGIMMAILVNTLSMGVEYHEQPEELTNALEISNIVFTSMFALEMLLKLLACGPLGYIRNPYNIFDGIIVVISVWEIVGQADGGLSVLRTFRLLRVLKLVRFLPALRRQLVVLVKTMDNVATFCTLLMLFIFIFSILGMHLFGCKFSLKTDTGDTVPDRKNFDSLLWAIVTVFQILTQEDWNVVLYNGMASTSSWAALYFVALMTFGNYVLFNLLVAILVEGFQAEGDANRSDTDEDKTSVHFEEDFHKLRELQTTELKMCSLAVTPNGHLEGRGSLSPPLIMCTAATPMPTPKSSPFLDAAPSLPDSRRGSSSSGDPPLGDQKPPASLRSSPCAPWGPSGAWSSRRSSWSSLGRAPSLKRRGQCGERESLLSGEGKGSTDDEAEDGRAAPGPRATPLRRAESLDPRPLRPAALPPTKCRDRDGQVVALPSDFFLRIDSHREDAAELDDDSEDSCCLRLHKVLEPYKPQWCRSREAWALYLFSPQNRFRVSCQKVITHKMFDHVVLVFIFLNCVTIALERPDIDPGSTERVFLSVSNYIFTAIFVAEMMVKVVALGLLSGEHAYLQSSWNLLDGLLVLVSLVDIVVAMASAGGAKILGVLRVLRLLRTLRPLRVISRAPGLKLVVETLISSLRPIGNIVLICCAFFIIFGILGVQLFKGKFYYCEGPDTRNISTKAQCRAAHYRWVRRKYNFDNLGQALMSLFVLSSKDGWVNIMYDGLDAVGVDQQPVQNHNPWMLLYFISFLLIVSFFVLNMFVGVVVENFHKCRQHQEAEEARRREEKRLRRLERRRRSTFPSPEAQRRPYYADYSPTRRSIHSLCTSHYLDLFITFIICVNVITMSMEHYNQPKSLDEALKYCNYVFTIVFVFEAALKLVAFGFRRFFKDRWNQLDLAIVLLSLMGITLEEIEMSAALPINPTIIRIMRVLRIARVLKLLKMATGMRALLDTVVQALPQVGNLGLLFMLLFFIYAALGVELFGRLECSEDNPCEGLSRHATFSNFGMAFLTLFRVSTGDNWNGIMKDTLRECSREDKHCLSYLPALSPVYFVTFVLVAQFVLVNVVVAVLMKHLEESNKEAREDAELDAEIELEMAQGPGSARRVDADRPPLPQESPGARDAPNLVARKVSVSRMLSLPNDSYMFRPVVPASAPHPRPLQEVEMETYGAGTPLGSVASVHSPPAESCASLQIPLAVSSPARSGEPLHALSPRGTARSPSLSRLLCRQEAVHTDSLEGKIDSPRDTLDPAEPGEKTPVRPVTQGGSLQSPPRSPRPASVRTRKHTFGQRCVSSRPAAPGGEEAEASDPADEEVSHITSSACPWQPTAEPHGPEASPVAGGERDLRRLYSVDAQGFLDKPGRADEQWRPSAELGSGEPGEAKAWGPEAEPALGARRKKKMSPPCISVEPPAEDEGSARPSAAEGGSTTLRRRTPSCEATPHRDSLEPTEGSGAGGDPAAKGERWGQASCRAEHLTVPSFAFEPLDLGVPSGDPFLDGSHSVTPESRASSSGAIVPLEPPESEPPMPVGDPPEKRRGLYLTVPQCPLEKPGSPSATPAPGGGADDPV

Regarding `C[C@]12CC[C@H](O)C[C@H]1CC[C@@H]1[C@@H]2CC[C@]2(C)[C@@H](C#N)CC[C@@H]12` [3β-OH, (3β,5β,17β)-3-hydroxyandrostane-17-carbonitrile], at CaV3.2 [1], at 10 µM the inhibition was 48.2 ± 4.2%.
With `C[C@]12CC[C@H]3[C@@H](CC[C@H]4C[C@@H](C#N)CC[C@@H]43)[C@@H]1CC[C@@H]2O` [ECN, (3β,5α,17β)-17-hydroxyestrane-3-carbonitrile], the inhibition at 10 µM on CaV3.2 [1] amounted to 47.4 ± 5.2%.
Regarding `C[C@]12CC[C@H](O)C[C@@H]1CC[C@@H]1[C@@H]2CC[C@]2(C)[C@@H](C#N)CC[C@@H]12` [compound 6, (3β,5α,17β)-3-Hydroxyandrostan-17-carbonitrile], on CaV3.2 [2], the IC50 came to 3.8 µM. This lies in the single-digit micromolar range.
Still for that read-out and setting: next, `CO[C@H]1CC[C@H]2[C@@H](CC[C@@H]3[C@@H]2CC[C@]2(C)[C@@H](O)CC[C@@H]32)C1` [compound 6, (3β,5α,17β)-3-Methoxyestran-17-ol]: 2.4 µM.
